Usually IC50 stands for the concentration at which inhibition is half-maximal. High values mean weaker potency in that assay, low ones greater potency in that assay.

The assay has as its target Acetylcholinesterase (Electrophorus electricus, UniProt O42275).

Acetylcholinesterase, sequence (O42275 whole entry): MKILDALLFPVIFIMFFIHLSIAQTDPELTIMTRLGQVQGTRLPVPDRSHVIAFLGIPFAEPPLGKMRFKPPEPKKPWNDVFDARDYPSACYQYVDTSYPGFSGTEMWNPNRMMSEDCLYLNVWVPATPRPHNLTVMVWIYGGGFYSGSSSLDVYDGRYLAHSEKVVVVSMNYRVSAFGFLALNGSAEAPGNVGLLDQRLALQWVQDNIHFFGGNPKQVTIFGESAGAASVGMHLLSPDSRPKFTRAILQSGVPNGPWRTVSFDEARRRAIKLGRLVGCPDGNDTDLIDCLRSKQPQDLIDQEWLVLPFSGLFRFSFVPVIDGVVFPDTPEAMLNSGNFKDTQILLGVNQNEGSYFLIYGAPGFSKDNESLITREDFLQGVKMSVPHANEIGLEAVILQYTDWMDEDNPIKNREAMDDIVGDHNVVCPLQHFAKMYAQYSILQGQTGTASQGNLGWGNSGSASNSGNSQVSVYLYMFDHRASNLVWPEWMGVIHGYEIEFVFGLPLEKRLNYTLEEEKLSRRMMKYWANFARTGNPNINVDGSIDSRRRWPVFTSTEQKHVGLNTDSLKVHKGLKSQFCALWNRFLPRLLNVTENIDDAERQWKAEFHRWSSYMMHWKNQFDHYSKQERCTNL
Description: Inhibition of Electrophorus electricus acetylcholinesterase using acetylthiocholineiodide as substrate measured at 30 secs intervals over 9 mins by Ellman's colorimetric assay

In turn, `C#Cc1ccc(NC(=O)OCC[Si](C)(C)C)cc1` returned an IC50 of 34.4 µM.

The compound `C#Cc1ccc(OC(=O)OCCC(C)(C)C)cc1` returned an IC50 of 59 µM.

For the origin of these results see ChEMBL document CHEMBL3632557, “Ethynylphenyl carbonates and carbamates as dual-action acetylcholinesterase inhibitors and anti-inflammatory agents” (Bioorg Med Chem Lett, 2015).
